Reference: US10633353B2, “Polymerizable compound, composition, polymer, optically anisotropic body, liquid crystal display element, and organic EL display” (DIC Corporation, priority 2014, dated 2020)

What was measured:
[1] = Preservation stability of the coating liquid; type: physicochemical
In short: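 Coating liquid stored 2 months at 0° C shielded from light, then graded A–E. Grades rest on visual appearance, change in composition by GPC, and weight ratio of insoluble components to total solids.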

[2] = Optical stability of the optical film (xenon-lamp irradiation); type: physicochemical; conditions: summary in words
Method: The coating liquid was applied to a glass substrate by spin coating, the glass substrate including a rubbed polyimide layer deposited thereon. The glass substrate was then placed on a hot plate, dried at 80° C. for 1 minute, and further dried at 140° C. for another 1 minute. Subsequently, irradiation with ultraviolet radiation at 1000 mJ/cm and 140° C. was performed.
The optical film was irradiated with light at 50 mW/cm^2, 25° C., and 100 J using a xenon-lamp irradiation testing machine (SUNTEST XLS, produced by Atlas). The optical stability of the optical film was evaluated on a scale of A to E below.
A: No change in the film was visually confirmed. An inspection of the optical film with a polarized light microscope also confirmed no defects.
B: Although no change in the film was visually confirmed, an inspection of the optical film with a polarized light microscope confirmed slight orientation defects.
C: Slight yellowing of the film was visually confirmed.
D: Yellowing of the film was visually confirmed. In addition, the optical film was partly detached from the glass substrate.
E: Yellowing of the entire film was visually confirmed. In addition, the optical film was detached from the glass substrate.

[3] = coating liquid stored for 2 months shielded from light at 0° C., appearance and GPC

Row | SMILES | Preservation stability [1, 3] | Preservation stability ([1]; summary in words) | optical stability [2]
1 | C=CC(=O)OCCCCCCOc1ccc(OC(=O)C2CCC(C(=O)OCCc3ccc(OC(=O)C4CCC(C(=O)Oc5ccc(OCCCCCCOC(=O)C=C)cc5)CC4)c(/C=N/N(CCCCCC)c4nc5ccccc5s4)c3)CC2)cc1 (centres unmarked) [1-cmn-82] | A (No visual change in the appearance of the coating liquid was confirmed. A GPC analysis of the coating liquid confirmed that the change in the composition of the coating liquid was 1% or less.) | high | high
2 | C=CC(=O)OCCCCOC(=O)C1CCC(C(=O)OC2CCC(C(=O)Oc3ccc(OC(=O)C4CCC(OC(=O)C5CCC(C(=O)OCCCCOC(=O)C=C)CC5)CC4)c(/C=N/N(CCCCCC)c4nc5ccccc5s4)c3)CC2)CC1 (centres unmarked) [1-f-97] | A (No visual change in the appearance of the coating liquid was confirmed. A GPC analysis of the coating liquid confirmed that the change in the composition of the coating liquid was 1% or less.) |  | 
3 | C=CC(=O)OCCCCCCOc1ccc(C(=O)Oc2ccc(C(=O)OCCc3ccc(OC(=O)c4ccc(OC(=O)c5ccc(OCCCCCCOC(=O)C=C)cc5)cc4)c(/C=N/Nc4nc5ccccc5s4)c3)cc2)cc1 [1-ch-79] | A (No visual change in the appearance of the coating liquid was confirmed. A GPC analysis of the coating liquid confirmed that the change in the composition of the coating liquid was 1% or less.) |  | 
